Literature values, collected in patent publication US11413265B2, “Formulations and compositions of Cabazitaxel” (Zhuhai Beihai Biotech Co., Ltd., priority 2018, dated 2022).

Columns and labels:
[1] = test system: human serum proteins; conditions: in vitro
[2] = molecular target: human serum albumin (Homo sapiens, UniProt P02768); conditions: in vitro
Chain of human serum albumin (P02768 25-609): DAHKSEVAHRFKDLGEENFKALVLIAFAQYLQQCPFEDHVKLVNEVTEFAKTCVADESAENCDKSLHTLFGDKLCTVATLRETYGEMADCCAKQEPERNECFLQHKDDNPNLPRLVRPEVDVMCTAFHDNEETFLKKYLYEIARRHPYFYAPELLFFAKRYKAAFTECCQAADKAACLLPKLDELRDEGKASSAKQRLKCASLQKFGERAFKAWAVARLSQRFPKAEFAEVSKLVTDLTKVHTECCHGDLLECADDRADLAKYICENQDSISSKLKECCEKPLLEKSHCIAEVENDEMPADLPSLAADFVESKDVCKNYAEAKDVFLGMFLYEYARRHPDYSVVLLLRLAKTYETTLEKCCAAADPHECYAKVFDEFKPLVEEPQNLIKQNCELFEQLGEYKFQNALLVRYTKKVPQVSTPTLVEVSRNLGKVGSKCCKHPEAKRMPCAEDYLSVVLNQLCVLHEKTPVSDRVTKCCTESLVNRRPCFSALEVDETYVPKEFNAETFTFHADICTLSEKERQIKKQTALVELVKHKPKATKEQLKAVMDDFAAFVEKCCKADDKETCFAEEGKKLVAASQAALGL

concentration up to which binding to human serum proteins was not saturable [1]: > 50,000 ng/mL | solubility in alcohol (alcohol): soluble | solubility in water (water): practically insoluble | bound to human serum albumin [2]: 82%
SMILES: CO[C@H]1C(=O)[C@]2(C)[C@@H](OC)C[C@H]3OC[C@@]3(OC(C)=O)[C@H]2[C@H](OC(=O)c2ccccc2)[C@]2(O)C[C@H](OC(=O)[C@H](O)[C@@H](NC(=O)OC(C)(C)C)c3ccccc3)C(C)=C1C2(C)C [Cabazitaxel, cabazitaxel]
